Measurements published in patent US20210113501A1, “METHOD OF ADMINISTERING BETA-HYDROXY-BETA-METHYLBUTYRATE (HMB)” (Metabolic Technologies, Inc., priority 2009, published 2021).

How the values were obtained:
Format in all cases: in vivo, human
[1] = Example 3: plasma HMB with probiotic supplementation; conditions: 0.8 g HMB-FA vs 1.0 g CaHMB; before and after 14 days of probiotic
Protocol: A study was conducted to examine the bioavailability of HMB-acid and CaHMB when also administering a probiotic. Six volunteers were tested before and after two weeks of probiotic supplementation. Between trials, each volunteer took one dose of probiotics (BC^30) every morning for 14 days. At each trial, baseline plasma HMB levels were measured, then gave each volunteer one serving of HMB (1.0 g of CaHMB or 0.8 g of HMB-FA). Plasma HMB levels were measured at 2, 5, 10, 15, 25, 35, 45, 60, 90, 120, 150, and 180 min, as well as at 6, 12, and 24 hours.

[2] = 12-week periodized resistance-training study of HMB-FA: strength and power
Source text: The current study was a randomized, double-blind, placebo- and diet-controlled experiment consisting of a 12-week-periodized resistance-training program. The training protocol was divided into three phases and consisted of a non-linear-periodized resistance-training program for the first 8 weeks, followed by a 2-week overreaching cycle, and finally a 2-week taper of the training volume. Muscle mass, body composition, strength, power, resting plasma testosterone, cortisol, and creatine kinase (CK) levels were examined collectively at the end of weeks 0, 4, 8, and 12 to assess the chronic effects of HMB; these measures were also assessed at the end of weeks 9 and 10, corresponding to the mid- and endpoints of the phase 2 overreaching cycle.
Twenty-four resistance-trained males were tested and included in the study. Subjects were organized into quartile blocks based on their LBM and strength. Following this, each quartile was randomized to one of the treatment groups using computer-generated random numbers. After treatment assignment, the groups were assessed to confirm there were no differences between groups. Of those randomized to the treatments, three subjects dropped from the placebo group, two because of injury and one because of the time commitment, while one dropped from the HMB-FA group due to injury. All drop outs occurred during the first 4 weeks of the study. The remaining 20 subjects (21.6±0.5 years of age) consisting of nine placebo (87.1±4.8 kg; 180.9 cm) and 11 supplemented (83.1±2.8 kg; 179.0±2.1) males with an average squat, bench press, and deadlift of 1.7±0.04, 1.3±0.04, and 2.0±0.05 times their bodyweight, respectively, completed the study. There were no significant differences for age, body weight, height, or BMI between the treatment groups at the start of the study
Strength was assessed via a one-repetition maximum (1-RM) testing of the back squat, bench press, and deadlift. The intraclass correlation coefficient (ICC) for the test-retest of strength in the squat, bench press, and deadlift ranged from r=0.956 to 0.982. Body composition [LBM, fat mass (FM), and total mass] was determined on a Lunar Prodigy dual X-ray absorptiometry (DXA) apparatus (software version, enCORE 2008, Madison, Wis., USA). Tests for the DXA were performed at the same time of day in a fasted state and the ICC was r=0.981. Skeletal muscle hypertrophy was assessed via changes in ultrasonography (GE Logiq e 2008, Wauwatosa, Wis., USA) determined combined muscle thickness of the vastus lateralis (VL) and vastus intermedius (VI) muscles. The ICC for the test-retest of muscle thickness measurements was r=0.975.
Peak power (PP) was assessed during maximal cycling (modified Wingate test) and jumping movements. During the cycling test, the volunteer was instructed to cycle against a predetermined resistance (7.5% of body weight) as fast as possible for 10 s on a cycle ergometer (Monark model 894e, Vansbro, Sweden). Wingate PP was recorded using Monark anaerobic test software (Version 1.0, Monark, Vansbro, Sweden). From completion of Wingate tests performed over several days, the ICC for Wingate PP was 0.966.
Measurements of PP for the vertical jump were also taken on a multicomponent AMTI force platform (Advanced Mechanical Technology, Watertown, Mass. USA) which interfaced with a personal computer at a sampling rate of 1,000 Hz). Data acquisition software (LabVIEW, version 7.1; National Instruments Corporation, Austin, Tex., USA) was used to calculate vertical jump PP. The ICC for VJ PP was 0.971.
Prior to the study, participants were randomly assigned to receive either 3 g per day of HMB-FA or a placebo divided equally into three servings. Each serving was formulated with 1 g of HMB-FA. The first serving was given 30 min prior to exercise and the remaining two servings given with the mid-day and evening meals. On the non-training days, participants were instructed to consume one serving with each of three separate meals throughout the day. […]

[3] = Comparison of the CaHMB and HMB-acid strength studies; conditions: comparison of two separate studies
Protocol: A study was conducted to examine the effects of CaHMB on strength. A second study was conducted to examine the effects of HMB-acid on strength. The results of these studies were then compared to determine the improved efficacy of HMB-acid over CaHMB on increasing strength gains.
Thirty-two male volunteers 19-22 yr of age were selected for the study. Body weight averaged 99.3±3.4 kg with a range of 72-136 kg and height was 185±1.5 cm with a range of 170-198 cm. Almost all subjects were engaged in some form of exercise program before the study.
Body composition was measured with TOBEC except that all subjects were measured after an overnight fast. Measurements were made on the Friday morning before the start of the experiment and each Friday thereafter. Strength measurements were made the week before the study and consisted of three standard strength measurements: the bench press, the squat, and the hang clean. Treatments and exercise regimens were started on Monday. The exercise regimen consisted of weight training 6 day s/wk, which included work on all major muscle groups, and lasted from 2 to 3 h/day. Aerobic training was also included in the exercise workout at least three times per week. […]
Differences between the two treatment groups were determined with at-test. […] Trends were determined for 0.05<P<0.11, and differences were considered not significant for P>0.11. […]

[4] = after 12 weeks of training, 3 g per day

CC(C)(O)CC(=O)O [HMB-acid, 3-hydroxy-3-methylbutyric acid]
time to peak plasma HMB, retention and bioavailability versus CaHMB [1]: faster time to peak plasma levels, greater retention of HMB, and improved bioavailability
increase in vertical jump power ([2]; after 12 weeks): 19%
strength increase, bench press [2, 4]: 12%
strength increase, deadlift [2, 4]: 16%
strength increase, squat [2, 4]: 25%
strength increase, total strength [2, 4]: 18%
increase in Wingate peak power ([2]; over the 12-week study): 18%
total strength increase ([2]; over the 12-week study, 3 g per day): 77.1 ± 18.4 kg
net percent increase per week in squat and bench press, greater than with CaHMB [3]: ~80%
